Measurements from patent publication US7074819B2, “Benzopyran or thiobenzopyran derivatives” (Chugai Seiyaku Kabushiki Kaisha, priority 1998, dated 2006).
Where two headings read alike, the source gives them in different places.

Experiments:
ovariectomized mice [1] = experiment: Anti-estrogenic activity (subcutaneous administration): inhibition of estradiol-stimulated uterine weight increase; type: in vivo, mice (ICR); conditions: s.c., 3 days; for Inhibition (%) of the increase of uterine weight by estradiol: 30 μg/mouse in peanut oil, ovariectomized ICR mice given 17β-estradiol-benzoate 0.1 μg/day; for inhibition of the increase of uterine weight by estradiol (in words): 30 μg/mouse, ovariectomized mice given 17β-estradiol
Description: Anti-estrogenic activity of the test compound by subcutaneous administration was determined according to the method described hereinafter. In this experiment, the compounds of Examples 1, 2, 3, 4, 5, 22, 127 and 128 were used as the test compound and the known anti-estrogenic compound ZM189154 was used as the control compound as in Experiment 1.
In this experiment, the test compound or the control compound was dissolved in peanut oil (Sigma) and injected subcutaneously for 3 days, once a day. After 24 hours from the last injection, the test animal was sacrificed and uterus was removed and weighed.

ovariectomized mice [2] = experiment: Anti-estrogenic activity (oral administration): inhibition of estradiol-stimulated uterine weight increase; type: in vivo; conditions: p.o., 3 days, 10 mg/kg in 5% arabic gum solution; ovariectomized ICR mice given 17β-estradiol-benzoate 0.1 μg/day
Description: Oral anti-estrogenic activity in vivo of the test compound was determined according to the method described hereinafter. In this experiment, the compound of Example 3, 22, 127 and 128 were used as the test compound and the known anti-estrogenic compound ZM189154 was used as the control compound as in Experiment 2.
In this experiment, the test compound or the control compound was suspended in 5% arabic gum solution and orally administered for 3 days, once a day. After 24 hours from the last administration, the test animal was sacrificed and uterus was removed and weighed.

MCF-7 cell lines (ATCC) = experiment: Cell growth inhibiting activity (MTT, with 0.1 nM estradiol, 7 days); type: cell-based; conditions: MCF-7 cells, read-out: IC50 value for inhibiting cell growth of 50%
Description: In this experiment, the cell growth inhibiting activity was determined by using the compounds of Examples 1, 2, 3, 5, 22, 127 and 128 as the test compound and the known anti-estrogenic compound […] having the following structure (see, EP0124369 B1) as the control compound, according to the method described hereinafter.
One day before drug administration, incubated MCF-7 cells were plated in 96-well plate in the concentration of 5×10^3 cells per well. After the 96-well plate was incubated for one day, 0.1 nM of estradiol and the test compound in the given concentration were added to each well. The plate was incubated for 7 days at 37° C. and then MTT solution (Sigma) was added to each well in the amount of 15 μl and allowed to react for 2 hours at 37° C. After the reaction was completed, the solubilizing/stopping solution (constitution: SDS, acetic acid, N,N-dimethylformamide) was added to each well in the amount of 100 μl. Then, the absorption for each well at 570 nm was measured by means of a plate reader. IC50 value for inhibiting cell growth of 50% was calculated from the results as measured and described in the following Table 2.

[3] = 7 days at 37° C., absorption at 570 nm

Compound	Inhibition (%) of the increase of uterine weight by estradiol (ovariectomized mice [1])	inhibition of the increase of uterine weight by estradiol (in words) (ovariectomized mice [1])	Inhibition (%) of the increase of uterine weight by estradiol (ovariectomized mice [2])	IC50 (MCF-7 cell lines (ATCC); [3])	IC50 (MCF-7 cell lines (ATCC); Homo sapiens, MCF7, 168 h, 7 days at 37° C., absorption at 570 nm)	IC50 (MCF-7 cell lines (ATCC); Homo sapiens, MCF7, 168 h, 7 days, control compound, (cis))	IC50 (MCF-7 cell lines (ATCC); Homo sapiens, MCF7, 168 h, 7 days, control compound, (trans))
CN(CCCCC[C@H]1c2ccc(O)cc2OC[C@@]1(C)c1ccc(O)cc1)CCCSCCCC(F)(F)C(F)(F)F (racemic) [Example 4, (3RS,4RS)-7-hydroxy-3-(4-hydroxyphenyl)-4-{5-[N-methyl-N-3-(4,4,5,5,5-pentafluoropentylthio)propylamino]pentyl}-3-methylchroman]	26.4%	–	–	–	–	–	–
CC1(c2ccc(O)cc2)CSc2cc(O)ccc2C1CCCCCCCCC(CCCC(F)(F)C(F)(F)F)C(=O)O (stereo not drawn) [Example 22, (3′RS,4′RS)-10-[7-hydroxy-3-(4-hydroxyphenyl)-3-methyltbiochroman-4-yl]-2-(4,4,5,5,5-pentafluoropentyl)decanoic acid]	51.0%	substantially inhibit	81.3%	850 nM	–	–	–
7-hydroxy-3-(4-hydroxyphenyl)-3-methyl-4-{9-[4-(4,4,5,5,5-pentafluoropentyl)piperazinyl]nonyl}chroman [Example 1]	27.5%	substantially inhibit	–	60.4 nM	–	–	–
[O-][S+](CCCC(F)(F)C(F)(F)F)CCOCCOc1ccc(C2=C(c3ccc(O)cc3)COc3cc(O)ccc32)cc1 (stereo not drawn) [Example 5, 4-{4-{2-[2-(4,4,5,5,5-pentafluoropentylsulfinyl)ethoxy]ethoxy}phenyl}-7-hydroxy-3-(4-hydroxyphenyl)-2H-chromene]	9.8%	–	–	–	387 nM	–	–
CCCCNC(=N)CCCCCCCCCC[C@H]1c2ccc(O)cc2OC[C@@]1(C)c1ccc(O)cc1 (racemic) [Compound I of Example 2, (3RS,4RS)-7-hydroxy-4-[(11-imino-11-N-butylamino)undecyl]-3-(4-hydroxyphenyl)-3-methylchroman]	30.8%	–	–	67.5 nM	–	–	–
CCCCN=C(CCCCCCCCCC[C@H]1c2ccc(O)cc2OC[C@@]1(C)c1ccc(O)cc1)NCCCC (racemic) [Compound II of Example 2, (3RS,4RS)-7-hydroxy-4-[(11-N-butylimino-11-N-butylamino)undecyl]-3-(4-hydroxyphenyl)-3-methylchroman]	−9.3%	–	–	1000 nM	–	–	–
C[C@]1(c2ccc(O)cc2)CCc2cc(O)ccc2C1CCCCCCCCC[S+]([O-])CCCC(F)(F)C(F)(F)F (stereo partly drawn) [ZM189154, reference compound]	73.8%	–	41.7%	–	–	9.2 nM	77 nM
CC(C)(C)c1cc(CN2CCN(CCOc3ccc([C@@H]4c5ccc(O)cc5OC[C@@]4(C)c4ccc(O)cc4)cc3)CC2)cc(C(C)(C)C)c1 (racemic) [Example 3, (3RS,4SR)-7-hydroxy-4-{4-{2-{4-{[3,5-bis(t-butyl)phenyl]methyl}piperazinyl}ethoxy}phenyl}-3-(4-hydroxyphenyl)-3-methylchroman]	11.7%	–	0.6%	54.5 nM	–	–	–
